{"source": "patent US20230270712A1", "about": "“NOBILETIN COMPOSITIONS AND METHODS FOR THE TREATMENT AND PREVENTION OF COVID-19 AND RELATED PATHOLOGIES” (CAS PROPERTIES, LLC, priority 2020, published 2023)", "key": {"[1]": {"tested_on": "natural killer (NK) cells", "settings": "cited from earlier work"}, "MMP-2": {"target": "MMP-2 (Homo sapiens, UniProt P08253)", "sequence (P08253 110-660, species assumed)": "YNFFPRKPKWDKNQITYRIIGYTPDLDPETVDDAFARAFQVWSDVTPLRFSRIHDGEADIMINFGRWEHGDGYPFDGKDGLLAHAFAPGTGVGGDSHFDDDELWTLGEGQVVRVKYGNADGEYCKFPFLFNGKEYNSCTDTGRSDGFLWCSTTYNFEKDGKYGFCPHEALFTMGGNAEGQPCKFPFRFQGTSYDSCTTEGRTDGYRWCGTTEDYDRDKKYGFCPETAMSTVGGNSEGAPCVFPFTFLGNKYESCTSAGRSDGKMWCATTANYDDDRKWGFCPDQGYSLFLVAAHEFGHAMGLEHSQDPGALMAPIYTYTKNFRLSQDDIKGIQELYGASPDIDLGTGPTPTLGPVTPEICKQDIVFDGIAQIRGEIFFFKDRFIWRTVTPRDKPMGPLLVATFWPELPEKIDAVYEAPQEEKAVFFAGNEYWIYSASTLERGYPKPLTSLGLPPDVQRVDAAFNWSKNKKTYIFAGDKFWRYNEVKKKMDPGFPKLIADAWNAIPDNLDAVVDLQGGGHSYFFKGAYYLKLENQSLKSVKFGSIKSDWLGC", "settings": "cited from earlier work"}, "[2]": {"assay": "bioavailability and tissue penetration", "settings": "in vivo"}, "enterovirus 71": {"tested_on": "enterovirus 71", "settings": "cited from earlier work"}, "IL1-α": {"tested_on": "IL1-α", "settings": "cited from earlier work"}, "[3]": {"tested_on": "5′ adenosine monophosphate-activated protein kinase (AMPK)", "settings": "cited from earlier work"}, "lung function": {"tested_on": "lung function", "assay": "lung function in subjects having severe pneumonia", "type": "in vivo", "settings": "including from COVID-19"}, "IL-6": {"tested_on": "IL-6", "settings": "cited from earlier work"}, "chikungunya (CHIKV)": {"tested_on": "chikungunya (CHIKV)", "settings": "cited from earlier work"}, "induced lung damage": {"tested_on": "induced lung damage", "settings": "acute lung injury research model, dose-dependent; cited from earlier work"}, "TIMP-1": {"tested_on": "TIMP-1", "settings": "cited from earlier work"}, "[4]": {"tested_on": "toll-like receptor (TLR) 2+TLR4", "settings": "cited from earlier work"}, "hepatitis C virus": {"tested_on": "hepatitis C virus", "settings": "cited from earlier work"}, "IL1-β": {"tested_on": "IL1-β", "settings": "cited from earlier work"}, "MMP-3": {"target": "MMP-3 (Homo sapiens, UniProt P08254)", "sequence (P08254 100-477, species assumed)": "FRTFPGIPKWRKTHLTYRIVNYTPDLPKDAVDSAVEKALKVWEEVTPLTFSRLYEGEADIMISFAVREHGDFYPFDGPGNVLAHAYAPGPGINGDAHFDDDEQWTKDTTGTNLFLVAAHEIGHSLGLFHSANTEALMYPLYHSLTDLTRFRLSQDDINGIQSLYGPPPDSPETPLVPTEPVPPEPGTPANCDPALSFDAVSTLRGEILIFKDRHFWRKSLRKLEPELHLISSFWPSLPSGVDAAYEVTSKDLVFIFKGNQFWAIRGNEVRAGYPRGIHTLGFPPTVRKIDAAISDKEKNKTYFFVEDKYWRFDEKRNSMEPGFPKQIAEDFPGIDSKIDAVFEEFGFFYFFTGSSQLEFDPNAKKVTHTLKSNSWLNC", "settings": "cited from earlier work"}, "TNF-α": {"tested_on": "TNF-α", "settings": "cited from earlier work"}, "MCP-1": {"tested_on": "MCP-1", "settings": "cited from earlier work"}, "COX-2": {"target": "COX-2 (Homo sapiens, UniProt P35354)", "sequence (P35354 18-604)": "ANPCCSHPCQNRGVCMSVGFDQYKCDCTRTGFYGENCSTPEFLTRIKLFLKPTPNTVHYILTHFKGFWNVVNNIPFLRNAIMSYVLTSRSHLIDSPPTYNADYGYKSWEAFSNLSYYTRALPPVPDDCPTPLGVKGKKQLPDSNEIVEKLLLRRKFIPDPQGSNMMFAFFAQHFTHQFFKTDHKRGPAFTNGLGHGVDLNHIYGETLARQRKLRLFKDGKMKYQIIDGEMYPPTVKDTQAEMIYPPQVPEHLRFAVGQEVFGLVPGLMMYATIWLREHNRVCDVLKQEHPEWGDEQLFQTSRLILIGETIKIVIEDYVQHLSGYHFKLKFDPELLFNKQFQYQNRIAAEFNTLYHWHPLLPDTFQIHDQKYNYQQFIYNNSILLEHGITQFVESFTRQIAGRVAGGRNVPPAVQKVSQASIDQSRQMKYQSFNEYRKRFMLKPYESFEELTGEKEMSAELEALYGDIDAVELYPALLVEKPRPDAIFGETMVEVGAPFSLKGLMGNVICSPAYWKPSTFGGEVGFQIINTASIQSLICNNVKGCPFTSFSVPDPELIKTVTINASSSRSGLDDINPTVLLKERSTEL", "settings": "cited from earlier work"}, "MMP-1": {"target": "MMP-1 (Homo sapiens, UniProt P03956)", "sequence (P03956 100-469, species assumed)": "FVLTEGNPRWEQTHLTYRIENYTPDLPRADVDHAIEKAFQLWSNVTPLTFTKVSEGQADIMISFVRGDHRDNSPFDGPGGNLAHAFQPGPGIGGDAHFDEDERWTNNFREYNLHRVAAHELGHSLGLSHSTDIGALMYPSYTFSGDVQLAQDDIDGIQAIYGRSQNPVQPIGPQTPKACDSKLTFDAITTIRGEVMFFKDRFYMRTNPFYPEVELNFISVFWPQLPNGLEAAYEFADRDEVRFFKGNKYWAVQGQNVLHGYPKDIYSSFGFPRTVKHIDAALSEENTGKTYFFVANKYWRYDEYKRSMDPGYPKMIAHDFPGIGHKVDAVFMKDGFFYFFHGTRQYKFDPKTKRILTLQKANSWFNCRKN", "settings": "cited from earlier work"}, "[5]": {"settings": "in vivo; cited from earlier work"}, "platelet aggregation": {"tested_on": "platelet aggregation", "settings": "cited from earlier work"}, "[6]": {"tested_on": "leukocyte infiltration into inflamed tissue", "settings": "in vivo; cited from earlier work"}, "MMP-9": {"target": "MMP-9 (Homo sapiens, UniProt P14780)", "sequence (P14780 94-707, species assumed)": "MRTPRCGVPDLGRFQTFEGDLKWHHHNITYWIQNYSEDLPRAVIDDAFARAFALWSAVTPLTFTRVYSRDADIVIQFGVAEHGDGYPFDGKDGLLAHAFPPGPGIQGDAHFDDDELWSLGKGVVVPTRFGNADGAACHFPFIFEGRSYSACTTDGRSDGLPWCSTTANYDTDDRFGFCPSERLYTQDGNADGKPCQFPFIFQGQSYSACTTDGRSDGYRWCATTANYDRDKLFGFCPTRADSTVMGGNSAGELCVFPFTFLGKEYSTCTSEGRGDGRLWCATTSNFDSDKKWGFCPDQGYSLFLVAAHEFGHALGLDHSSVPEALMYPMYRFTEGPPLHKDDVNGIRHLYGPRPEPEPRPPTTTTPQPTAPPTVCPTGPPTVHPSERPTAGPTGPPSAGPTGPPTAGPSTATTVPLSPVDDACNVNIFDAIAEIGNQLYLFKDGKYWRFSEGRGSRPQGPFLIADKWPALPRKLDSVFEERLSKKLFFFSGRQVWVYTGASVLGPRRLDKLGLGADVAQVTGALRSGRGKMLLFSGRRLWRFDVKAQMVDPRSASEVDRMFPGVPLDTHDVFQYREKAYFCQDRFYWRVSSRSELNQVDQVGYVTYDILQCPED", "settings": "cited from earlier work"}, "[7]": {"settings": "higher concentration of nobiletin"}}, "note": "Read-outs that look alike come from different tables or passages of the source.", "data": [{"smiles": "COc1ccc(-c2cc(=O)c3c(OC)c(OC)c(OC)c(OC)c3o2)cc1OC", "note": "[nobiletin, 5,6,7,8,3′,4′-hexamethoxyflavone]", "values": [{"measurement": "anti-viral activity of NK cells", "setting": "[1]", "value": "potentiating"}, {"measurement": "inhibition of MMP-2", "setting": "MMP-2", "value": "inhibiting"}, {"measurement": "relative bioavailability", "setting": "[2]", "value": "high relative bioavailability"}, {"measurement": "tissue penetration", "setting": "[2]", "value": "high tissue penetration"}, {"measurement": "anti-viral activity against enterovirus 71", "setting": "enterovirus 71", "value": "direct anti-viral activity"}, {"measurement": "inhibition of IL1-α", "setting": "IL1-α", "value": "significantly inhibiting"}, {"measurement": "AMPK levels and activity", "setting": "[3]", "value": "increasing"}, {"measurement": "lung function", "setting": "lung function", "value": "excellent ability to restore lung function"}, {"measurement": "inhibition of IL-6", "setting": "IL-6", "value": "significantly inhibiting"}, {"measurement": "inhibition of chikungunya (CHIKV) infection", "setting": "chikungunya (CHIKV); at viral entry as well as during translation/replication state", "value": "inhibit chikungunya (CHIKV) infection"}, {"measurement": "cell survival of virally infected cells", "setting": "chikungunya (CHIKV); [7]", "value": "~90", "unit": "%"}, {"measurement": "increase in survival of virally infected cells", "setting": "chikungunya (CHIKV); [7]", "value": 6, "unit": "fold"}, {"measurement": "increase in survival of virally infected cells", "setting": "chikungunya (CHIKV); lower concentration of nobiletin, cell survival without it <15%", "value": 4, "unit": "fold"}, {"measurement": "induced lung damage", "setting": "induced lung damage", "value": "nearly eliminated lung damage"}, {"measurement": "effect on TIMP-1", "setting": "TIMP-1", "value": "upregulating"}, {"measurement": "inhibition of TLR2+TLR4", "setting": "[4]", "value": "significantly inhibiting"}, {"measurement": "activity against hepatitis C virus", "setting": "hepatitis C virus", "value": "significant activity"}, {"measurement": "inhibition of IL1-β", "setting": "IL1-β", "value": "significantly inhibiting"}, {"measurement": "inhibition of MMP-3", "setting": "MMP-3", "value": "inhibiting"}, {"measurement": "inhibition of TNF-α", "setting": "TNF-α", "value": "significantly inhibiting"}, {"measurement": "inhibition of MCP-1", "setting": "MCP-1", "value": "significantly inhibiting"}, {"measurement": "inhibition of COX-2 (and its metabolite PGE2)", "setting": "COX-2", "value": "inhibiting"}, {"measurement": "inhibition of MMP-1", "setting": "MMP-1", "value": "inhibiting"}, {"measurement": "anti-obesity effects", "setting": "[5]", "value": "weight loss, fat loss"}, {"measurement": "platelet aggregation", "setting": "platelet aggregation", "value": "suppression of platelet aggregation"}, {"measurement": "leukocyte infiltration into inflamed tissue", "setting": "[6]", "value": "significantly reduces"}, {"measurement": "inhibition of MMP-9", "setting": "MMP-9", "value": "inhibiting"}]}]}
